From patent publication US20240050428A1 (Cullgen (Shanghai), Inc., priority 2020, published 2024)
Like-named read-outs stand apart in the source and are kept apart here.

Key:
[1] = tested on: tested cell lines; details: tested cell lines (Matyskiela, Lu et al. 2016); cited from earlier work
[2] = biological target: GSPT1 (Homo sapiens, UniProt P15170+Q96SW2); details: cereblon-dependent; also other targets such as IKZF1 and IKZF3 (Matyskiela, Lu et al. 2016); cited from earlier work
[3] = tested on: MOLM-13 cells; test: Cell viability assay (CellTiter-Glo) in MOLM-13 cells, alone or with gilteritinib; format: cell-based; details: MOLM-13 cells; for IC50: Homo sapiens, MOLM-13, 72 h, CellTiter-Glo; for Sensitivity of FLT3-mutant AML cells to GSPT1 degrader upon FLT3 inhibition: with or without 20 nM gilteritinib, 3 days (FIG. 2A-2C)
[4] = tested on: MV4;11 cells; test: Cell viability assay (CellTiter-Glo) in MV4;11 cells, alone or with gilteritinib; format: cell-based; details: Homo sapiens, MV4-11, 72 h, MV4;11 cells, CellTiter-Glo, read-out: MV4
[5] = tested on: MOLM-13 cells; test: Cell viability / cell growth inhibition of MOLM-13 cells, GSPT1 degrader with or without gilteritinib; format: cell-based; details: combined with FLT3 inhibitor gilteritinib (20 nM in FIG. 2A-2C)
Method: FIG. 2A is a graph of cell viability in MOML-13 cells treated with varying doses of GS-002, with or without gilteritinib at 20 nM.
FIG. 2B is a graph of cell viability in MOML-13 cells treated with varying doses of GS-005, with or without gilteritinib at 20 nM.
FIG. 2C is a graph of cell viability in MOML-13 cells treated with varying doses of GS-006, with or without gilteritinib at 20 nM.
When combined with FLT3 inhibitor gilteritinib, the potency of some of the compounds was increased synergistically.

[6] = with 20 nM gilteritinib, 3 days, read-out: MOLM-13 IC50 gilteritinib
[7] = without gilteritinib, 3 days, read-out: MOLM-13 IC50
[8] = with 10 nM gilteritinib, 3 days, 11 IC50 gilteritinib
[9] = without gilteritinib, 3 days, 11 IC50
[10] = compound alone (without gilteritinib), three days, read-out: MOLM-13 IC50
[11] = compound with gilteritinib 20 nM, three days, read-out: MOLM-13 IC50 gilteritinib
[12] = compound alone (without gilteritinib), three days, 11 IC50
[13] = compound with gilteritinib 10 nM, three days, 11 IC50 gilteritinib

Sequence of GSPT1 (P15170 whole entry): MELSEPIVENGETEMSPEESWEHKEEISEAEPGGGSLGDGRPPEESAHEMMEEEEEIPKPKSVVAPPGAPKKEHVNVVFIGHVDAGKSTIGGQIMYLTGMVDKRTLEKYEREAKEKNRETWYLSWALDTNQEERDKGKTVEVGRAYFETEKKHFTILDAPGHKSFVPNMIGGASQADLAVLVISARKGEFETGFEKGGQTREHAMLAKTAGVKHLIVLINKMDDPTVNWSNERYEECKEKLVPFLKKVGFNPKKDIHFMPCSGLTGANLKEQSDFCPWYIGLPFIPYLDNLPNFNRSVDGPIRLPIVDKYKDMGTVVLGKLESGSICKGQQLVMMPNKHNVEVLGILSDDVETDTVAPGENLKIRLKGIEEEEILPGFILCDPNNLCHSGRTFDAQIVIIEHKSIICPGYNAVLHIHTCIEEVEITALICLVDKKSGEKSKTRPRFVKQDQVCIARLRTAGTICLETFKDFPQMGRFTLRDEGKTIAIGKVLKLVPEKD
Sequence of GSPT1 (Q96SW2 whole entry): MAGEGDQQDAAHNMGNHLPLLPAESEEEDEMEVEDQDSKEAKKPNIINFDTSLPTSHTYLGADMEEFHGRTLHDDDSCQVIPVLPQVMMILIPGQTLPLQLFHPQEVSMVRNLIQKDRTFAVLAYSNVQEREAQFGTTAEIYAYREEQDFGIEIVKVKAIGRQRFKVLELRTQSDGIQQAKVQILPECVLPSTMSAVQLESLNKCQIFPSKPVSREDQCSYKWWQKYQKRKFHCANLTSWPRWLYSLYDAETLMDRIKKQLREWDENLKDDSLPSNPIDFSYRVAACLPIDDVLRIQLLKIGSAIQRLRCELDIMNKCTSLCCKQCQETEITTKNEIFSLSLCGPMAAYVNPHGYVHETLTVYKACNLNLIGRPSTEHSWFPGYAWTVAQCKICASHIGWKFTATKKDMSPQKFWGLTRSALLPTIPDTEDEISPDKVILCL
Sequence of GSPT1 (Q16531 whole entry partner): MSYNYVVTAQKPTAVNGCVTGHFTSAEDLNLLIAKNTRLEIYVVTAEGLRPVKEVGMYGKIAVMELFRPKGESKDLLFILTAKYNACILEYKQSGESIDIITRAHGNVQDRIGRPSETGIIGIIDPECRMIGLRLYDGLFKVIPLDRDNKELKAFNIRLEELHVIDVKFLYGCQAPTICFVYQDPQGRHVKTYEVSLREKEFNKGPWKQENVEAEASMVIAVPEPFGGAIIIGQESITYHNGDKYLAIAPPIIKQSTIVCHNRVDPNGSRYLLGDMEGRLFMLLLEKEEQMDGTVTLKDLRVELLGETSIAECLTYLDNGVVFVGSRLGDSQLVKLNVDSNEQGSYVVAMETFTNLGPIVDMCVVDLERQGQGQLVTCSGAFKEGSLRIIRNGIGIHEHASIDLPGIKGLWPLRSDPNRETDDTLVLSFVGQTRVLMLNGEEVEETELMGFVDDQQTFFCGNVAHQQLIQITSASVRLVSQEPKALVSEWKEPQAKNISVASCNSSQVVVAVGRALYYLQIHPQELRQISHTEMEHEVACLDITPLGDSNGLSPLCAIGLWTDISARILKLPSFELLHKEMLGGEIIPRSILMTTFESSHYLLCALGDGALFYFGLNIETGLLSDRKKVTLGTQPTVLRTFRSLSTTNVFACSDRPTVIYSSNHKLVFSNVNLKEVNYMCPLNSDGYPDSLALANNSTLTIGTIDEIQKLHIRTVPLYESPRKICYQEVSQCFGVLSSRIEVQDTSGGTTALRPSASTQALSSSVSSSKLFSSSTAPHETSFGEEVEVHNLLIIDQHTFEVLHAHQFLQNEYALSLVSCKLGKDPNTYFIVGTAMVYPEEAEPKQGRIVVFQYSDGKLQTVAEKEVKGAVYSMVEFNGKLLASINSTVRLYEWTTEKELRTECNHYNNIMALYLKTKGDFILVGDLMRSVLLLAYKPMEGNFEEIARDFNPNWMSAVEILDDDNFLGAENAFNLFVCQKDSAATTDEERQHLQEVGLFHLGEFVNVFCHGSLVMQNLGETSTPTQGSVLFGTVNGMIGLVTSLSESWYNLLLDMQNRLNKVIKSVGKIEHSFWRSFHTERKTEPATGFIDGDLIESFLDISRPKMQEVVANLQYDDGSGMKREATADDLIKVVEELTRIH

Compound	toxicity in cell lines [1]	degradation of GSPT1 [2]	IC50 [3, 6]	IC50 [3, 7]	Sensitivity of FLT3-mutant AML cells to GSPT1 degrader upon FLT3 inhibition [3]	IC50 [4, 8]	IC50 [4, 9]	potency combined with gilteritinib, cell growth inhibition [5]	IC50 [3, 10]	IC50 [3, 11]	IC50 [4, 12]	IC50 [4, 13]
Cc1ccc(NC(=O)NCc2ccc3c(c2)CN(C2CCC(=O)NC2=O)C3=O)cc1Cl (centres unmarked) [CC-885]	significant toxicity in the vast majority of tested cell lines	cereblon-dependent degradation of GSPT1	–	–	–	–	–	–	–	–	–	–
O=C1CCC(N2C(=O)c3ccc(NCCCCCC(=O)N4CCC(n5cc(-c6cnc7cccc(Br)c7n6)cn5)CC4)cc3C2=O)C(=O)N1 (centres unmarked) [GS-002, 5-((6-(4-(4-(8-bromoquinoxalin-2-yl)-1H-pyrazol-1-yl)piperidin-1-yl)-6-oxohexyl)amino)-2-(2,6-dioxopiperidin-3-yl)isoindoline-1,3-dione]	–	–	1.9 nM	583 nM	remarkably increases sensitivity	3 nM	227 nM	significantly improved	–	–	–	–
O=C1CCC(N2C(=O)c3ccc(NCCCCCC(=O)N4CCC(n5cc(-c6cnc7ccccc7n6)cn5)CC4)cc3C2=O)C(=O)N1 (centres unmarked) [GS-005, 2-(2,6-dioxopiperidin-3-yl)-5-((6-oxo-6-(4-(4-(quinoxalin-2-yl)-1H-pyrazol-1-yl)piperidin-1-yl)hexyl)amino)isoindoline-1,3-dione]	–	–	0.2 nM	11.8 nM	remarkably increases sensitivity	1.8 nM	6 nM	significantly improved	–	–	–	–
O=C1CCC(N2C(=O)c3ccc(NCCCCCC(=O)N4CCC(n5cc(-c6ccc7ccccc7n6)cn5)CC4)cc3C2=O)C(=O)N1 (centres unmarked) [GS-006, 2-(2,6-dioxopiperidin-3-yl)-5-((6-oxo-6-(4-(4-(quinolin-2-yl)-1H-pyrazol-1-yl)piperidin-1-yl)hexyl)amino)isoindoline-1,3-dione]	–	–	0.3 nM	29 nM	remarkably increases sensitivity	4.6 nM	12 nM	significantly improved	–	–	–	–
Cc1cccc(-c2cn([C@H]3C[C@H](CNc4ccc5c(c4)C(=O)N(C4CCC(=O)NC4=O)C5=O)C3)nc2C(=O)N(C)C)n1 (stereo partly drawn) [GS-636, 1-(trans-3-(((2-(2,6-dioxopiperidin-3-yl)-1,3-dioxoisoindolin-5-yl)amino)methyl)cyclobutyl)-N,N-dimethyl-4-(6-methylpyridin-2-yl)-1H-pyrazole-3-carboxamide]	–	–	–	–	–	–	–	–	> 1000 nM	> 1000 nM	> 1000 nM	> 1000 nM
CNC(=O)c1nn([C@H]2C[C@H](CNc3ccc4c(c3)C(=O)N(C3CCC(=O)NC3=O)C4=O)C2)cc1-c1cccc(C)n1 (stereo partly drawn) [GS-637, 1-(trans-3-(((2-(2,6-dioxopiperidin-3-yl)-1,3-dioxoisoindolin-5-yl)amino)methyl)cyclobutyl)-N-methyl-4-(6-methylpyridin-2-yl)-1H-pyrazole-3-carboxamide]	–	–	–	–	–	–	–	–	100 to 1000 nM	10 to 100 nM	10 to 100 nM	< 10 nM
Cc1cccc(-c2cn([C@H]3C[C@H](CNc4ccc5c(c4)C(=O)N(C4CCC(=O)NC4=O)C5=O)C3)nc2C2CCNCC2)n1 (stereo partly drawn) [GS-638, 2-(2,6-Dioxopiperidin-3-yl)-5-(((trans-3-(4-(6-methylpyridin-2-yl)-3-(piperidin-4-yl)-1H-pyrazol-1-yl)cyclobutyl)methyl)amino)isoindoline-1,3-dione]	–	–	–	–	–	–	–	–	> 1000 nM	> 1000 nM	> 1000 nM	> 1000 nM
Cc1nn([C@H]2C[C@H](CCCNc3ccc4c(c3)C(=O)N(C3CCC(=O)N(C)C3=O)C4=O)C2)cc1-c1cnc2ccccc2n1 (stereo partly drawn) [GS-639, 2-(1-Methyl-2,6-dioxopiperidin-3-yl)-5-((3-(trans-3-(3-methyl-4-(quinoxalin-2-yl)-1H-pyrazol-1-yl)cyclobutyl)propyl)amino)isoindoline-1,3-dione]	–	–	–	–	–	–	–	–	> 1000 nM	> 1000 nM	> 1000 nM	> 1000 nM
CCc1nc(C(N)=O)c(Nc2ccc(N3CCC(N4CCN(C)CC4)CC3)c(OC)c2)nc1NC1CCOCC1 [gilteritinib, reference compound]	–	–	–	7 nM	–	–	2.3 nM	–	–	–	–	–
